Results on twelve compounds are retold here after ChEMBL document CHEMBL1201862, “PubChem BioAssay data set” (2004).

SMILES strings stand for the structures.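 Five concentrations, 48 hours, 96-well plates. GI50 = concentration required for 50% inhibition of growth.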 The source made the active and inactive calls. Cut-off read from the data, not from the text of the source: active = GI50 up to about 1.1 µM and inactive = higher.

Among the test systems are A498; A549; ACHN; BT-549; EKVX; HOP-62; MDA-N; NCI-H23; NCI-H460; OVCAR-3; SF-268; SK-MEL-28; SK-OV-3; SN12C; SNB-19; SR; T47D; UACC-257; UACC-62; DLD-1.
Holding throughout (assay): NCI-60 cell line screen, 48 h

As for `OC1c2c(ccc3c2CCC3)CC12Cc1ccccc1C2` (stereo not given), the GI50 with A498 was 16.2 µM (inactive); with A549, 17.1 µM (inactive); in the experiment on ACHN it was 16.8 µM (inactive); with BT-549, 16.9 µM (inactive); with EKVX, 16.4 µM (inactive); with HOP-62, 16.4 µM (inactive). Besides, the GI50 is 15.5 µM (inactive) in the experiment with MDA-N; 16.8 µM (inactive) in the experiment with NCI-H23; 17.1 µM (inactive) in the experiment on NCI-H460; 13.6 µM (inactive) with OVCAR-3; 14.7 µM (inactive) in the experiment on SF-268; 16.6 µM (inactive) with SK-MEL-28. The GI50 in the experiment on SK-OV-3 is 15.7 µM (inactive); in the experiment with SN12C, 15.3 µM (inactive); in the experiment with SNB-19, 15.7 µM (inactive); in the experiment on SR it was 10.9 µM (inactive); with T47D, 16.5 µM (inactive); in the experiment with UACC-257, 14.1 µM (inactive). Besides, the GI50 in the experiment with UACC-62 is 15.4 µM (inactive).
As to `NCCCNCc1c2ccccc2c(CNCCCN)c2ccccc12`, the GI50 in the experiment with A498 is 23.1 µM (inactive); in the experiment on A549 it was 19.2 µM (inactive); with ACHN, 26.7 µM (inactive); in the experiment on DLD-1 it was 34.6 µM (inactive); in the experiment with EKVX it was 20.3 µM (inactive); in the experiment with HOP-62, 22.9 µM (inactive). Besides, the GI50 in the experiment with NCI-H23 was 18.6 µM (inactive); in the experiment with NCI-H460, 16.4 µM (inactive); with OVCAR-3 it was 28.3 µM (inactive); with SF-268, 5.12 µM (inactive); in the experiment on SK-MEL-28 it was > 10 µM (inactive); in the experiment on SN12C, 3.66 µM (inactive). For the same compound, the GI50 in the experiment with SNB-19 is 33.2 µM (inactive); with UACC-257 it was 21.2 µM (inactive); with UACC-62 it was 36.1 µM (inactive).
As for `Cc1ccc(NC(=O)c2cc3cc(/N=N/c4ccccc4C(=O)O)ccc3oc2=O)cc1`, the GI50 was 40.9 µM (inactive) in the experiment with A549; 53.2 µM (inactive) in the experiment with ACHN; 41 µM (inactive) in the experiment with DLD-1; 46.1 µM (inactive) in the experiment on EKVX; > 100 µM (inactive) with HOP-62; 32.1 µM (inactive) in the experiment on NCI-H23. For the same compound, the GI50 was 49.3 µM (inactive) with NCI-H460; 25.2 µM (inactive) in the experiment on OVCAR-3; 37.5 µM (inactive) in the experiment on SK-MEL-28; 74 µM (inactive) in the experiment on SK-OV-3; 54.6 µM (inactive) in the experiment on SN12C; 28.4 µM (inactive) in the experiment on SNB-19. For the same compound, the figures for the GI50 in the experiment with UACC-257 and in the experiment with UACC-62 were 20.3 µM (inactive) and 24.6 µM (inactive), respectively.
As for `O=C(CSc1nnc(-c2ccc(/N=C\c3ccc(Cl)cc3)cc2)o1)Nc1ccc(Cl)cc1Cl`, the GI50 in the experiment with A498 was > 100 µM (inactive); in the experiment with A549 it was > 100 µM (inactive); in the experiment with ACHN it was 45.4 µM (inactive); in the experiment on DLD-1, 27.3 µM (inactive); in the experiment on EKVX it was 34.1 µM (inactive); in the experiment on HOP-62, 30.5 µM (inactive). The GI50 in the experiment with NCI-H23 is 25.3 µM (inactive); with NCI-H460 it was > 100 µM (inactive); in the experiment with SF-268, 25.2 µM (inactive); in the experiment on SK-MEL-28 it was 28 µM (inactive); with SK-OV-3, 27.5 µM (inactive); with SN12C, 24 µM (inactive). For the same compound, the GI50 with SNB-19 was 31 µM (inactive); in the experiment on UACC-257, 25 µM (inactive); in the experiment on UACC-62 it was 28.7 µM (inactive).
In the case of `COc1cc2c(cc1OC)C(Cc1cc(Br)c(OC)c(OC)c1)=[N+](C)CC2`, the GI50 in the experiment with A549 is 34.8 µM (inactive); with ACHN, 90.4 µM (inactive); in the experiment with DLD-1 it was 80 µM (inactive); with EKVX, > 100 µM (inactive); in the experiment on HOP-62, 43.4 µM (inactive); in the experiment on NCI-H23, 14.6 µM (inactive). In addition, the GI50 in the experiment on NCI-H460 is 58.1 µM (inactive); with OVCAR-3 it was 28.2 µM (inactive); in the experiment with SF-268 it was > 100 µM (inactive); in the experiment on SK-MEL-28, > 100 µM (inactive); in the experiment on SK-OV-3 it was > 100 µM (inactive); in the experiment with SN12C, 87.3 µM (inactive). Further, the GI50 in the experiment with SNB-19 was 55.6 µM (inactive); with UACC-257, 11.1 µM (inactive); with UACC-62, > 100 µM (inactive).
Take `CC(O)C(C(=O)O)N(CC1(O)OCC(O)C(O)C1O)N=O` (stereo not given): the GI50 in the experiment on A498, in the experiment on A549, in the experiment with ACHN, with DLD-1, in the experiment with EKVX and with HOP-62 was > 100 µM (inactive) each time. In addition, the GI50 in the experiment on NCI-H23, with NCI-H460, with OVCAR-3, in the experiment with SK-MEL-28, with SK-OV-3 and in the experiment on UACC-257 was > 100 µM (inactive) in each case. Besides, in the experiment on UACC-62, the GI50 is > 100 µM (inactive).
Regarding `CCCCCCCCCCCCCCCC(=O)OCC1OC(n2cc(F)c(=O)[nH]c2=O)C(N)C(O)C1O` (stereo not given), the GI50 was 25.9 µM (inactive) with A498; 19 µM (inactive) in the experiment on A549; 18.8 µM (inactive) in the experiment on ACHN; 20.6 µM (inactive) with DLD-1; 18.8 µM (inactive) with EKVX; 19.7 µM (inactive) in the experiment on HOP-62. The GI50 was 19.7 µM (inactive) in the experiment on NCI-H23; 2.19 µM (inactive) in the experiment with OVCAR-3; 19.5 µM (inactive) with SF-268; 16.9 µM (inactive) with SK-MEL-28; 22.4 µM (inactive) in the experiment on SK-OV-3; 18.2 µM (inactive) in the experiment with SN12C. The GI50 in the experiment with SNB-19 is 22.2 µM (inactive); in the experiment with UACC-257, 20.2 µM (inactive); in the experiment on UACC-62 it was 16.2 µM (inactive).
Turning to `COC(=O)c1cc2c3c(cc(NCCN)c2[nH]1)N(C(=O)c1cc2cc(OC)c(OC)c(OC)c2[nH]1)CC3CCl` (stereo not given), the GI50 in the experiment with A498 is 0.131 µM (active); in the experiment with A549, 0.145 µM (active); in the experiment on ACHN, 0.0889 µM (active); in the experiment on BT-549, 0.229 µM (active); in the experiment on EKVX, 0.158 µM (active); in the experiment with HOP-62 it was 0.17 µM (active). Also, the GI50 with MDA-N was 0.0811 µM (active); in the experiment with NCI-H23, 0.0659 µM (active); in the experiment on NCI-H460, 0.0502 µM (active); in the experiment with OVCAR-3, 0.0728 µM (active); in the experiment on SF-268, 0.0213 µM (active); with SK-MEL-28, 0.109 µM (active). Besides, the GI50 in the experiment with SK-OV-3 is 0.273 µM (active); in the experiment with SN12C, 0.0982 µM (active); with SNB-19, 0.0183 µM (active); in the experiment with SR, 0.0153 µM (active); with T47D, 0.031 µM (active); in the experiment on UACC-257 it was 0.214 µM (active). The GI50 in the experiment with UACC-62 is 0.0594 µM (active).
As to `C#CCNC(=O)N(CC#C)N=O`, the GI50 in the experiment with A498, with ACHN, in the experiment on DLD-1, in the experiment on EKVX, in the experiment with HOP-62 and in the experiment with NCI-H23 was > 100 µM (inactive) in each case. Further, the GI50 with NCI-H460, with OVCAR-3, in the experiment with SF-268, in the experiment with SK-MEL-28, in the experiment on SK-OV-3 and in the experiment on SN12C was > 100 µM (inactive) each time. Also, the GI50 with SNB-19, in the experiment on UACC-257 and in the experiment on UACC-62 was > 100 µM (inactive) in each case.
With `COCCCNC(=O)C1C(=O)N(CCCOC)C(=O)/C1=N\N` (stereo not given), the GI50 in the experiment with A498, with A549, in the experiment with ACHN, in the experiment on DLD-1, in the experiment with EKVX and in the experiment with HOP-62 was > 100 µM (inactive) each time. For the same compound, the GI50 with NCI-H23, in the experiment with NCI-H460, in the experiment with OVCAR-3, in the experiment with SF-268, in the experiment with SK-MEL-28 and with SN12C was > 100 µM (inactive) throughout. Besides, the GI50 with SNB-19, with UACC-257 and with UACC-62 was > 100 µM (inactive) in each case.
For the compound `C(=C\c1ccccc1)/C=N/c1nc2cc3sc(/N=C/C=C/c4ccccc4)nc3cc2s1`, the GI50 with A498 is > 42.5 µM (inactive); with A549 it was 12.1 µM (inactive); in the experiment on ACHN it was > 55.8 µM (inactive); in the experiment on BT-549, > 96.2 µM (inactive); with EKVX, 73.1 µM (inactive); with HOP-62 it was 99.3 µM (inactive). Further, the GI50 is > 72.1 µM (inactive) in the experiment with MDA-N; 42.2 µM (inactive) with NCI-H23; 4.16 µM (inactive) in the experiment with NCI-H460; 24.3 µM (inactive) in the experiment on OVCAR-3; > 63.4 µM (inactive) in the experiment on SF-268; > 100 µM (inactive) in the experiment on SK-MEL-28. The GI50 in the experiment with SK-OV-3 was > 100 µM (inactive); in the experiment on SN12C, 69.2 µM (inactive); in the experiment with SNB-19 it was > 100 µM (inactive); in the experiment with SR it was 2.95 µM (inactive); with T47D, 47 µM (inactive); in the experiment on UACC-257 it was > 100 µM (inactive). Moreover, the GI50 in the experiment on UACC-62 is 99.8 µM (inactive).
As to `Cc1ccc(S(=O)(=O)NC(=O)NCCc2ccccc2)cc1`, the GI50 in the experiment with A498, with A549, in the experiment on ACHN, in the experiment with DLD-1, in the experiment with EKVX and in the experiment with HOP-62 was > 100 µM (inactive) in each case. In addition, the GI50 in the experiment with NCI-H23 is 76.7 µM (inactive); with NCI-H460, > 100 µM (inactive); with OVCAR-3, > 100 µM (inactive); with SF-268, > 100 µM (inactive); in the experiment on SK-MEL-28, > 100 µM (inactive); with SK-OV-3, > 100 µM (inactive). In addition, the GI50 in the experiment on SN12C is > 100 µM (inactive); with SNB-19, > 100 µM (inactive); in the experiment with UACC-257, 25.9 µM (inactive); in the experiment on UACC-62, > 100 µM (inactive).
